The target of the experiment is T1, Serum Glucocorticoid-regulated Kinase-1 (SGK-1) (Homo sapiens, UniProt O00141, S422D).
T1 construct: a truncated form of the human enzyme that included amino acids 61-431; 6xHis (N); made in house
T1 sequence (O00141 61-431 S422D): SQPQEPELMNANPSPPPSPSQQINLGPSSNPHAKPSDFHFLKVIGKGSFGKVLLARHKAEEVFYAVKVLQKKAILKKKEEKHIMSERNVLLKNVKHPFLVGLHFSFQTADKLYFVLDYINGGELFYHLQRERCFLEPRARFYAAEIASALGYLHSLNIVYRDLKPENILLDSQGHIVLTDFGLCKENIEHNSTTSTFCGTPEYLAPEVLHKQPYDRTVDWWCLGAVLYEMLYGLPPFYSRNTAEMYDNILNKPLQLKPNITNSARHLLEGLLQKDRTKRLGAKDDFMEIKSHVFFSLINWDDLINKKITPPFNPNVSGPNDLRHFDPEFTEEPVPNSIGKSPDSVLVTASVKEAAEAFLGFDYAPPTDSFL
In words: SGK-1 Enzyme Assay (SGK1e), substrate phosphorylation, scintillation proximity. Type of experiment: biochemical. To be noted: truncated human SGK-1 (aa 61-431, S422D), 10 μM ATP, Crosstide substrate. The procedure: Compounds of the present invention were tested for Serum Glucocorticoid-regulated Kinase-1 (SGK-1) protein serine/threonine kinase inhibitory activity in substrate phosphorylation assays using enzyme purified from a baculovirus expression vector system. The recombinant baculovirus was made to express the intracellular domain of SGK-1 (GenBank accession number MD41091). The virus expressed a truncated form of the human enzyme that included amino acids 61-431. Serine422 was replaced with Aspartic acid to activate the enzyme, and 6 Histidine residues were added at the amino terminus to facilitate purification. The protein was purified using Ni-NTA agarose affinity chromatography. The peptide substrate was an N-terminal biotinylated sunthetic peptide named Crosstide (biotin-Ahx-GRPRTSSFAEG-OH), corresponding to the sequence in GSK3 surrounding the serine phosphorylated by MAPKAP Kinase-1/Rsk and p70 S6 Kinase.
The method measures the ability of the isolated enzyme to catalyze the transfer of the γ-phosphate from ATP onto serine/threonine residues in the biotinylated Crosstide. Reactions were performed in 96-well polystyrene round-bottom plates in a final volume of 30 uL. Reaction mixtures contained 62.5 mM HEPES (pH 7.4), 10 mM MgCl2, 0.1 mM EDTA, 0.0024% TWEEN-20, and 1 mM DTT (added fresh daily), 10 μM ATP, 0.2 μCi [[v-^33P] ATP per reaction, 4 μM Crosstide peptide substrate, and 1 nM SGK1 enzyme. Reactions were initiated by adding the indicated enzyme. The reaction was allowed to proceed for 2 hours, then terminated by the addition of 50 mM EDTA and quantified using a scintillation proximity assay procedure as described (McDonald, O. B., Antonsson, B., Arkinstal, S., Marshall, C. J., and Wood, E. R. (1999) Analytical Biochemistry, 268, 318-329).
Compounds under analysis were dissolved in Me2SO to 1 mM and serially diluted 1 to 3 with Me2SO through eleven columns of a 96 well plate. 1 uL of each concentration was transferred to the corresponding well of the assay plate. This created a final compound concentration range from 0.56 nM to 33.3 uM.
The data for dose responses were plotted as % Control calculated with the data reduction formula 100*(U1-C2)/(C1-C2) versus concentration of compound and fitted to the curve described by:
where Vmax is the upper asymptote and K is the IC50
(In general: In a scintillation proximity assay essentially only radioactivity close to the scintillant gives light.)

Bounds are passed on as bounds.

This is an account of results in patent US20080058515A1, “Chemical Compounds” (priority 2003, published 2008).

For orientation: IC50 means the concentration that inhibits the measured activity by half. The low end stands for greater potency, the high end for weaker potency.

With `O=C(/C=C/c1n[nH]c2ccccc12)N1CCC2(CC1)C(=O)NCN2c1ccccc1` [Example 30, 8-[(2E)-3-(1H-indazol-3-yl)prop-2-enoyl]-1-phenyl-1,3,8-triazaspiro[4.5]decan-4-one], the 50% inhibitory concentration (IC50) was under 1 µM.
The same measure for `CCCN(C)CCOc1ccc(NC(=O)/C=C/c2n[nH]c3ccccc23)cc1OC` [Example 19, (2E)-3-(1H-indazol-3-yl)-N-(3-methoxy-4-{2-[methyl(propyl)amino]ethoxy}phenyl)-2-propenamide]: under 1 µM; for `CCN(Cc1ccncc1)C(=O)c1cccc(NC(=O)/C=C/c2n[nH]c3ccccc23)c1` [Example 41, N-ethyl-3-(((2E)-3-(1H-indazol-3-yl)prop-2-enoyl)amino)-N-(pyridin-4-ylmethyl)benzamide]: under 1 µM; for `O=C(/C=C/c1n[nH]c2ccccc12)Nc1cccc(C(=O)c2ccccc2)c1` [Example 12, (2E)-N-(3-benzoylphenyl)-3-(1H-indazol-3-yl)-2-propenamide]: under 1 µM.
For the molecule `COc1cc(NC(=O)/C=C/c2n[nH]c3ccccc23)ccc1OCCN(C(C)C)C(C)C` [Example 15, (2E)-N-[4-[2-(diisopropylamino)ethoxy]-3-methoxyphenyl]-3-(1H-indazol-3-yl)-2-propenamide], the IC50 is under 1 µM.
As for `O=C(/C=C/c1n[nH]c2ccccc12)Nc1ccc2ncsc2c1` [Example 1, (2E)-N-(1,3-benzothiazol-6-yl)-3-(1H-indazol-3-yl)-2-propenamide], the figure is under 1 µM; as for `N#Cc1ccccc1NC(=O)/C=C/c1n[nH]c2ccccc12` [Example 3, (2E)-N-(2-cyanophenyl)-3-(1H-indazol-3-yl)-2-propenamide], under 1 µM.
`CCOC(=O)C1CCN(C(=O)/C=C/c2n[nH]c3ccccc23)CC1` [Example 27, Ethyl 1-[(2E)-3-(1H-indazol-3-yl)prop-2-enoyl]piperidine-4-carboxylate] gave a half-inhibitory concentration (IC50) of 1 to 10 µM.
Regarding `O=C(/C=C/c1n[nH]c2ccccc12)Nc1ccc(C(=O)NCCc2cccnc2)cc1` [Example 36, 4-(((2E)-3-(1H-indazol-3-yl)prop-2-enoyl)amino)-N-(2-pyridin-3-ylethyl)benzamide], the IC50 was under 1 µM.
`CC(C)CNC(=O)/C=C/c1n[nH]c2ccccc12` [Example 24, (2E)-3-(1H-indazol-3-yl)-N-isobutylprop-2-enamide] showed an IC50 of 1 to 10 µM.
